Laboratory results from patent US10766902B2, “Wee-1 inhibiting pyrazolopyrimidinone compounds” (ALMAC DISCOVERY LIMITED, priority 2016, dated 2020).

Columns and labels:
Type in all cases: biochemical
Conditions in all cases: tested at 300-350 nM
ABL1 = ABL1 (Homo sapiens (Human), UniProt P00519); test: SelectScreen Kinase Profiling: ABL1
Source text: (§1) Table 4 below highlights the selectivity of a representative compound of the invention, Example 5, against a panel of 50 kinases (assessed using the Invitrogen SelectScreen® Kinase Profiling Service).

ACVR1B (ALK4) = ACVR1B (ALK4) (Homo sapiens (Human), UniProt P36896); test: SelectScreen Kinase Profiling: ACVR1B (ALK4)
Source text: as §1

AKT1 (PKB alpha) = AKT1 (PKB alpha) (Homo sapiens (Human), UniProt P31749); test: SelectScreen Kinase Profiling: AKT1 (PKB alpha)
Source text: as §1

AMPK A1/B1/G1 = AMPK A1/B1/G1 (Homo sapiens (Human), UniProt Q13131); test: SelectScreen Kinase Profiling: AMPK A1/B1/G1
Source text: as §1

AURKA (Aurora A) = AURKA (Aurora A) (Homo sapiens (Human), UniProt O14965); test: SelectScreen Kinase Profiling: AURKA (Aurora A)
Source text: as §1

BTK = BTK (Homo sapiens (Human), UniProt Q06187); test: SelectScreen Kinase Profiling: BTK
Source text: as §1

CDK1/cyclin B = CDK1/cyclin B (Homo sapiens (Human), UniProt P06493); test: SelectScreen Kinase Profiling: CDK1/cyclin B
Source text: as §1

CHEK1 (CHK1) = CHEK1 (CHK1) (Homo sapiens (Human), UniProt O14757); test: SelectScreen Kinase Profiling: CHEK1 (CHK1)
Source text: as §1

CSNK1G2 (CK1 gamma 2) = CSNK1G2 (CK1 gamma 2) (Homo sapiens (Human), UniProt P78368); test: SelectScreen Kinase Profiling: CSNK1G2 (CK1 gamma 2)
CSNK1G2 (CK1 gamma 2), sequence (P78368 whole entry): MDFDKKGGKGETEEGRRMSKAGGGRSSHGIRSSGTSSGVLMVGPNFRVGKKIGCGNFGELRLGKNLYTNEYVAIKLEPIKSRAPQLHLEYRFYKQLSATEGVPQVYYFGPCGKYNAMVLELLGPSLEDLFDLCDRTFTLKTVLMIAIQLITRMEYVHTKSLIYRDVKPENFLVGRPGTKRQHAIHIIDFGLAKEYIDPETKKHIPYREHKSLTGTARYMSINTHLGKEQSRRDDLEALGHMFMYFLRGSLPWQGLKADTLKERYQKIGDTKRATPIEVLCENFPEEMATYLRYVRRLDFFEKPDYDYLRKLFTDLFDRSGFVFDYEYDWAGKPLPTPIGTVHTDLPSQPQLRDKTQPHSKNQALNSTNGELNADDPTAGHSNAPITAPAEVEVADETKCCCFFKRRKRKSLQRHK
Source text: as §1

CSNK2A1 (CK2 alpha 1) = CSNK2A1 (CK2 alpha 1) (Homo sapiens (Human), UniProt P68400); test: SelectScreen Kinase Profiling: CSNK2A1 (CK2 alpha 1)
Source text: as §1

DYRK3 = DYRK3 (Homo sapiens (Human), UniProt O43781); test: SelectScreen Kinase Profiling: DYRK3
Source text: as §1

EGFR (ErbB1) = EGFR (ErbB1) (Homo sapiens (Human), UniProt P00533); test: SelectScreen Kinase Profiling: EGFR (ErbB1)
Source text: as §1

EPHA2 = EPHA2 (Homo sapiens (Human), UniProt P29317); test: SelectScreen Kinase Profiling: EPHA2
Source text: as §1

ERBB2 (HER2) = ERBB2 (HER2) (Homo sapiens (Human), UniProt P04626); test: SelectScreen Kinase Profiling: ERBB2 (HER2)
Source text: as §1

FGFR1 = FGFR1 (Homo sapiens (Human), UniProt P11362); test: SelectScreen Kinase Profiling: FGFR1
Source text: as §1

FLT3 = FLT3 (Homo sapiens (Human), UniProt P36888); test: SelectScreen Kinase Profiling: FLT3
FLT3, sequence (P36888 27-993): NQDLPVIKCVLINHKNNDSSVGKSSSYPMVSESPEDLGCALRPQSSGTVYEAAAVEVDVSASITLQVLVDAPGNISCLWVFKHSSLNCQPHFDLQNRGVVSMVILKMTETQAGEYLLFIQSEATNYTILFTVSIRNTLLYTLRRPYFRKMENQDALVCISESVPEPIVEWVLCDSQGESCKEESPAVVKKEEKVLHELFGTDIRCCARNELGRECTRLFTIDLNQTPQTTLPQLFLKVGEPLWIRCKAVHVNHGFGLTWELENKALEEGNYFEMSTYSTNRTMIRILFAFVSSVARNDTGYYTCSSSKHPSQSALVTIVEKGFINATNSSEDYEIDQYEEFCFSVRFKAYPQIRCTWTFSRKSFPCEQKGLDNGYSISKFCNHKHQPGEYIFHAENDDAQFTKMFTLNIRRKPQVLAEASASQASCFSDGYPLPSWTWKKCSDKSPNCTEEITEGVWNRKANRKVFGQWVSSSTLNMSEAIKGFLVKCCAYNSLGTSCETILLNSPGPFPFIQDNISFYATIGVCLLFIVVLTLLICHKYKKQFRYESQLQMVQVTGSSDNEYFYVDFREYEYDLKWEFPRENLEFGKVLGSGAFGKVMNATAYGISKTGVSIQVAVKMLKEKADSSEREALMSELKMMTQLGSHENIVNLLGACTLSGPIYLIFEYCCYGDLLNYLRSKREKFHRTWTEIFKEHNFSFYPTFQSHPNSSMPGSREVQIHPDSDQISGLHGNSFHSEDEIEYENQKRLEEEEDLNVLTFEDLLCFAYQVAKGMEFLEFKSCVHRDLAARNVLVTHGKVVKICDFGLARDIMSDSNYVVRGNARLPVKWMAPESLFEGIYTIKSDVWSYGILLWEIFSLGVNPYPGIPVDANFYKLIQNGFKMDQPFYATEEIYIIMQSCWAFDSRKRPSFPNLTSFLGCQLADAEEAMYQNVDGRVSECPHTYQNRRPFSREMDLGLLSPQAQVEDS
Source text: as §1

FRAP1 (mTOR) = FRAP1 (mTOR) (Homo sapiens (Human), UniProt P42345); test: SelectScreen Kinase Profiling: FRAP1 (mTOR)
Source text: as §1

GSK3B (GSK3 beta) = GSK3B (GSK3 beta) (Homo sapiens (Human), UniProt P49841); test: SelectScreen Kinase Profiling: GSK3B (GSK3 beta)
Source text: as §1

IGF1R = IGF1R (Homo sapiens (Human), UniProt P08069); test: SelectScreen Kinase Profiling: IGF1R
Source text: as §1

IKBKB (IKK beta) = IKBKB (IKK beta) (Homo sapiens (Human), UniProt O14920); test: SelectScreen Kinase Profiling: IKBKB (IKK beta)
Source text: as §1

INSR = INSR (Homo sapiens (Human), UniProt P06213); test: SelectScreen Kinase Profiling: INSR
Source text: as §1

IRAK4 = IRAK4 (Homo sapiens (Human), UniProt Q9NWZ3); test: SelectScreen Kinase Profiling: IRAK4
Source text: as §1

JAK3 = JAK3 (Homo sapiens (Human), UniProt P52333); test: SelectScreen Kinase Profiling: JAK3
Source text: as §1

KDR (VEGFR2) = KDR (VEGFR2) (Homo sapiens (Human), UniProt P35968); test: SelectScreen Kinase Profiling: KDR (VEGFR2)
Source text: as §1

KIT = KIT (Homo sapiens (Human), UniProt P10721); test: SelectScreen Kinase Profiling: KIT
Source text: as §1

MAP2K1 (MEK1) = MAP2K1 (MEK1) (Homo sapiens (Human), UniProt Q02750); test: SelectScreen Kinase Profiling: MAP2K1 (MEK1)
MAP2K1 (MEK1), sequence (Q02750 whole entry): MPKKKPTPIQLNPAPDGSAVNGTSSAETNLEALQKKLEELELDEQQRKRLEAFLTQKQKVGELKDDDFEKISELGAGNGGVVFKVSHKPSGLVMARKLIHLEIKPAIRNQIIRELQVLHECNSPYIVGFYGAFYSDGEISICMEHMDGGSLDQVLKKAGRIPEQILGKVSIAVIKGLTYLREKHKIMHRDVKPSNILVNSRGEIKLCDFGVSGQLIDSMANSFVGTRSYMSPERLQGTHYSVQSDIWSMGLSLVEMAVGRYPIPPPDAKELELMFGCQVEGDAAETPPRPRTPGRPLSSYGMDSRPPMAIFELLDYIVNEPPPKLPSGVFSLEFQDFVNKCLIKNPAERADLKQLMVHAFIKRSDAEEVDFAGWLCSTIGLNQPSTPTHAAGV
Source text: as §1

MAP4K4 (HGK) = MAP4K4 (HGK) (Homo sapiens (Human), UniProt O95819); test: SelectScreen Kinase Profiling: MAP4K4 (HGK)
Source text: as §1

MAPK1 (ERK2) = MAPK1 (ERK2) (Homo sapiens (Human), UniProt P28482); test: SelectScreen Kinase Profiling: MAPK1 (ERK2)
Source text: as §1

MAPK14 (p38 alpha) = MAPK14 (p38 alpha) (Homo sapiens (Human), UniProt Q16539); test: SelectScreen Kinase Profiling: MAPK14 (p38 alpha)
Source text: as §1

MAPK8 (JNK1) = MAPK8 (JNK1) (Homo sapiens (Human), UniProt P45983); test: SelectScreen Kinase Profiling: MAPK8 (JNK1)
Source text: as §1

MAPKAPK2 = MAPKAPK2 (Homo sapiens (Human), UniProt P49137); test: SelectScreen Kinase Profiling: MAPKAPK2
Source text: as §1

MARK2 = MARK2 (Homo sapiens (Human), UniProt Q7KZI7); test: SelectScreen Kinase Profiling: MARK2
Source text: as §1

MET (cMet) = MET (cMet) (Homo sapiens (Human), UniProt P08581); test: SelectScreen Kinase Profiling: MET (cMet)
MET (cMet), sequence (P08581 25-1390): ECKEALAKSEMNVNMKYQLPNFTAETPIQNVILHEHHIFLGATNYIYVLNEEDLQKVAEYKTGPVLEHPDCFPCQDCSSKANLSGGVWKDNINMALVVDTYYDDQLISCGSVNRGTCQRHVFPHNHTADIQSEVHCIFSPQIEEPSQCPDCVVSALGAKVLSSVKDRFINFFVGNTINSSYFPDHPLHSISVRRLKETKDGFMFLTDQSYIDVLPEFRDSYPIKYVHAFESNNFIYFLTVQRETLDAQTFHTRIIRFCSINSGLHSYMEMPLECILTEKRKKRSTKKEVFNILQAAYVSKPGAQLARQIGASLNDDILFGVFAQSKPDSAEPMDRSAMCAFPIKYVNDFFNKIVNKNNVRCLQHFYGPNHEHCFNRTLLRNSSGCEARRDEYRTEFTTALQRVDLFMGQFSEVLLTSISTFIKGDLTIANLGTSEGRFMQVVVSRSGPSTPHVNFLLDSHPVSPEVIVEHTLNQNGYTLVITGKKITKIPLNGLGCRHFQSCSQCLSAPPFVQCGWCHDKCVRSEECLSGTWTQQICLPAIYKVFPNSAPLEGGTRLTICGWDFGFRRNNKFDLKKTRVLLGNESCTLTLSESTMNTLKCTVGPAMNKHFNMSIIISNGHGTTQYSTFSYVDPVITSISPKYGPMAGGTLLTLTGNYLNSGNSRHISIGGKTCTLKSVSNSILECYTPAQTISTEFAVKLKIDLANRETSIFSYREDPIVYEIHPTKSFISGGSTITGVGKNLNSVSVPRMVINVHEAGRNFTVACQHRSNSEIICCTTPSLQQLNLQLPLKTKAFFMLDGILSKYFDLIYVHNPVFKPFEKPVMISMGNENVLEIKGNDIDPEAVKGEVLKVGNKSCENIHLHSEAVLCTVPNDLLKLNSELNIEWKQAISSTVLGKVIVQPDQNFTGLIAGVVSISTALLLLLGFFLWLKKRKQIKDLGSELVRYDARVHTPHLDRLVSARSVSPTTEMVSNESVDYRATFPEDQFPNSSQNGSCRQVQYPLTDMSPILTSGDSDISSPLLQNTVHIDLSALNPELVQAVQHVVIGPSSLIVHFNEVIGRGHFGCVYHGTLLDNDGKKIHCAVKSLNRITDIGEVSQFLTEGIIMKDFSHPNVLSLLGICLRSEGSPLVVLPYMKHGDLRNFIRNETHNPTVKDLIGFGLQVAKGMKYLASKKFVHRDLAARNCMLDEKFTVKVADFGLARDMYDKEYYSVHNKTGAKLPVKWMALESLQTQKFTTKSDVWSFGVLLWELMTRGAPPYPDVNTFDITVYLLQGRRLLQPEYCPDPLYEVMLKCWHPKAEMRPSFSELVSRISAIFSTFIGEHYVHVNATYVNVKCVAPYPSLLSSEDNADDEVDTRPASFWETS
Source text: as §1

NEK1 = NEK1 (Homo sapiens (Human), UniProt Q96PY6); test: SelectScreen Kinase Profiling: NEK1
Source text: as §1

NTRK1 (TRKA) = NTRK1 (TRKA) (Homo sapiens (Human), UniProt P04629); test: SelectScreen Kinase Profiling: NTRK1 (TRKA)
Source text: as §1

PAK4 = PAK4 (Homo sapiens (Human), UniProt O96013); test: SelectScreen Kinase Profiling: PAK4
Source text: as §1

PDGFRB (PDGFR beta) = PDGFRB (PDGFR beta) (Homo sapiens (Human), UniProt P09619); test: SelectScreen Kinase Profiling: PDGFRB (PDGFR beta)
Source text: as §1

PHKG2 = PHKG2 (Homo sapiens (Human), UniProt P15735); test: SelectScreen Kinase Profiling: PHKG2
Source text: as §1

PIM1 = PIM1 (Homo sapiens (Human), UniProt P11309); test: SelectScreen Kinase Profiling: PIM1
Source text: as §1

PLK1 = PLK1 (Homo sapiens (Human), UniProt P53350); test: SelectScreen Kinase Profiling: PLK1
PLK1, sequence (P53350 whole entry): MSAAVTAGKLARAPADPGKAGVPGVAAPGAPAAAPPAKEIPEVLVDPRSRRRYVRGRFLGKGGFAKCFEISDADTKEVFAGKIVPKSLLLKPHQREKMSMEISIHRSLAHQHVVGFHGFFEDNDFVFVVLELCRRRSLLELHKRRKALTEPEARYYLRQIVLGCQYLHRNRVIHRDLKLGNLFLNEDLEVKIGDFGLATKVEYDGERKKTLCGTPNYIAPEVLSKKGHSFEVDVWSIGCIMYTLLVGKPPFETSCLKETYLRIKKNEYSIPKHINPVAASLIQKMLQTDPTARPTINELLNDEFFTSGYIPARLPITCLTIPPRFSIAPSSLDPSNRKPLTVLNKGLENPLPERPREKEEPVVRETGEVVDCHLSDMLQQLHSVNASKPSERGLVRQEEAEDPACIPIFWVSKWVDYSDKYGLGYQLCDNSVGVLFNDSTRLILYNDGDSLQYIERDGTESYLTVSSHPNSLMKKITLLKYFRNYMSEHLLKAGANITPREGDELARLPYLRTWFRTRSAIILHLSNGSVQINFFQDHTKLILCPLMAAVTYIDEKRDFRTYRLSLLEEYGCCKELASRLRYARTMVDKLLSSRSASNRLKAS
Source text: as §1

PRKACA (PKA) = PRKACA (PKA) (Homo sapiens (Human), UniProt P17612); test: SelectScreen Kinase Profiling: PRKACA (PKA)
Source text: as §1

PRKCB1 (PKC beta I) = PRKCB1 (PKC beta I) (Homo sapiens (Human), UniProt P05771); test: SelectScreen Kinase Profiling: PRKCB1 (PKC beta I)
Source text: as §1

ROCK1 = ROCK1 (Homo sapiens (Human), UniProt Q13464); test: SelectScreen Kinase Profiling: ROCK1
Source text: as §1

RPS6KA3 (RSK2) = RPS6KA3 (RSK2) (Homo sapiens (Human), UniProt P51812); test: SelectScreen Kinase Profiling: RPS6KA3 (RSK2)
RPS6KA3 (RSK2), sequence (P51812 whole entry): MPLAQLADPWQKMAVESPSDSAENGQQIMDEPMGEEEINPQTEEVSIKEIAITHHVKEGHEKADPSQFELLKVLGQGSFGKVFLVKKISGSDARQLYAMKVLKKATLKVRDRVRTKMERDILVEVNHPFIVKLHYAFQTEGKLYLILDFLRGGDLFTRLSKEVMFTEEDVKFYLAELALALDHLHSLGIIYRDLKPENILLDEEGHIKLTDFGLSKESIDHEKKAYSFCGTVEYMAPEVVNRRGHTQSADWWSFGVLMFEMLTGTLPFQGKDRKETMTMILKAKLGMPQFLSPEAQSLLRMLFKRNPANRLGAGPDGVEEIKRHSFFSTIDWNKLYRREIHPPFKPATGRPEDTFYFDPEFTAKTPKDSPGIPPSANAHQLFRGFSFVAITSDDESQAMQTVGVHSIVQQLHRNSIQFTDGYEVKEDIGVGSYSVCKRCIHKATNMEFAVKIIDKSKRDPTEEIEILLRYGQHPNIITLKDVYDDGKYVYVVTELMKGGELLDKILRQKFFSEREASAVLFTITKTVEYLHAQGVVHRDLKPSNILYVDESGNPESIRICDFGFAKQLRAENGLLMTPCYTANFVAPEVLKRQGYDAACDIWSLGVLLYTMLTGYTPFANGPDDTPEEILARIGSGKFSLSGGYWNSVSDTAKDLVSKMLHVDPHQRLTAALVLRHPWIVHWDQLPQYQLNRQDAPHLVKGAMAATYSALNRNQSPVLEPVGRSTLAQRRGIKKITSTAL
Source text: as §1

RPS6KB1 (p70S6K) = RPS6KB1 (p70S6K) (Homo sapiens (Human), UniProt P23443); test: SelectScreen Kinase Profiling: RPS6KB1 (p70S6K)
Source text: as §1

SRC = SRC (Homo sapiens (Human), UniProt P12931); test: SelectScreen Kinase Profiling: SRC
SRC, sequence (P12931 whole entry, looked up): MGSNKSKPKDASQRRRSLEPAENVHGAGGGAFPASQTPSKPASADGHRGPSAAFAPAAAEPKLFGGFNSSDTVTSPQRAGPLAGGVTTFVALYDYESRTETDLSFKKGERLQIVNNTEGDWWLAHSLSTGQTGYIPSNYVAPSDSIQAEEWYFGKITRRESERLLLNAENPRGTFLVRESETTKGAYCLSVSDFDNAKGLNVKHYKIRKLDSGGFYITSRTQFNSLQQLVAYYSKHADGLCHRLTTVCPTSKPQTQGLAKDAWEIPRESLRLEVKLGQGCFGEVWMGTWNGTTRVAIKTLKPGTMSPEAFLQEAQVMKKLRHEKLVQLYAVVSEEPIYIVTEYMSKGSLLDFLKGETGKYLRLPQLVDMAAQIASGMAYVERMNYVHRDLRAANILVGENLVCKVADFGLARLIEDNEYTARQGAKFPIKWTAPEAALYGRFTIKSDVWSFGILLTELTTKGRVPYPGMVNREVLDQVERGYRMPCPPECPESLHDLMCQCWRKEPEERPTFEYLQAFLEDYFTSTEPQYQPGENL
Source text: as §1

SYK = SYK (Homo sapiens (Human), UniProt P43405); test: SelectScreen Kinase Profiling: SYK
Source text: as §1

TEK (Tie2) = TEK (Tie2) (Homo sapiens (Human), UniProt Q02763); test: SelectScreen Kinase Profiling: TEK (Tie2)
Source text: as §1

Structure (SMILES): C=CCn1c(=O)c2cnc(Nc3ccc(N4CCN(C)CC4)cc3)nc2n1-c1cccc(C(C)(C)O)n1 [reference compound]
- inhibition of ABL1 (ABL1): + (inhibition over 50% (tested at 300-350 nM))
- inhibition of ACVR1B (ALK4) (ACVR1B (ALK4)): − (inhibition under 50% (tested at 300-350 nM))
- inhibition of AKT1 (PKB alpha) (AKT1 (PKB alpha)): − (inhibition under 50% (tested at 300-350 nM))
- inhibition of AMPK A1/B1/G1 (AMPK A1/B1/G1): − (inhibition under 50% (tested at 300-350 nM))
- inhibition of AURKA (Aurora A) (AURKA (Aurora A)): − (inhibition under 50% (tested at 300-350 nM))
- inhibition of BTK (BTK): − (inhibition under 50% (tested at 300-350 nM))
- inhibition of CDK1/cyclin B (CDK1/cyclin B): − (inhibition under 50% (tested at 300-350 nM))
- inhibition of CHEK1 (CHK1) (CHEK1 (CHK1)): − (inhibition under 50% (tested at 300-350 nM))
- inhibition of CSNK1G2 (CK1 gamma 2) (CSNK1G2 (CK1 gamma 2)): − (inhibition under 50% (tested at 300-350 nM))
- inhibition of CSNK2A1 (CK2 alpha 1) (CSNK2A1 (CK2 alpha 1)): − (inhibition under 50% (tested at 300-350 nM))
- inhibition of DYRK3 (DYRK3): − (inhibition under 50% (tested at 300-350 nM))
- inhibition of EGFR (ErbB1) (EGFR (ErbB1)): + (inhibition over 50% (tested at 300-350 nM))
- inhibition of EPHA2 (EPHA2): − (inhibition under 50% (tested at 300-350 nM))
- inhibition of ERBB2 (HER2) (ERBB2 (HER2)): − (inhibition under 50% (tested at 300-350 nM))
- inhibition of FGFR1 (FGFR1): − (inhibition under 50% (tested at 300-350 nM))
- inhibition of FLT3 (FLT3): − (inhibition under 50% (tested at 300-350 nM))
- inhibition of FRAP1 (mTOR) (FRAP1 (mTOR)): − (inhibition under 50% (tested at 300-350 nM))
- inhibition of GSK3B (GSK3 beta) (GSK3B (GSK3 beta)): − (inhibition under 50% (tested at 300-350 nM))
- inhibition of IGF1R (IGF1R): − (inhibition under 50% (tested at 300-350 nM))
- inhibition of IKBKB (IKK beta) (IKBKB (IKK beta)): − (inhibition under 50% (tested at 300-350 nM))
- inhibition of INSR (INSR): − (inhibition under 50% (tested at 300-350 nM))
- inhibition of IRAK4 (IRAK4): − (inhibition under 50% (tested at 300-350 nM))
- inhibition of JAK3 (JAK3): − (inhibition under 50% (tested at 300-350 nM))
- inhibition of KDR (VEGFR2) (KDR (VEGFR2)): − (inhibition under 50% (tested at 300-350 nM))
- inhibition of KIT (KIT): − (inhibition under 50% (tested at 300-350 nM))
- inhibition of MAP2K1 (MEK1) (MAP2K1 (MEK1)): − (inhibition under 50% (tested at 300-350 nM))
- inhibition of MAP4K4 (HGK) (MAP4K4 (HGK)): + (inhibition over 50% (tested at 300-350 nM))
- inhibition of MAPK1 (ERK2) (MAPK1 (ERK2)): − (inhibition under 50% (tested at 300-350 nM))
- inhibition of MAPK14 (p38 alpha) (MAPK14 (p38 alpha)): − (inhibition under 50% (tested at 300-350 nM))
- inhibition of MAPK8 (JNK1) (MAPK8 (JNK1)): − (inhibition under 50% (tested at 300-350 nM))
- inhibition of MAPKAPK2 (MAPKAPK2): − (inhibition under 50% (tested at 300-350 nM))
- inhibition of MARK2 (MARK2): − (inhibition under 50% (tested at 300-350 nM))
- inhibition of MET (cMet) (MET (cMet)): − (inhibition under 50% (tested at 300-350 nM))
- inhibition of NEK1 (NEK1): − (inhibition under 50% (tested at 300-350 nM))
- inhibition of NTRK1 (TRKA) (NTRK1 (TRKA)): − (inhibition under 50% (tested at 300-350 nM))
- inhibition of PAK4 (PAK4): − (inhibition under 50% (tested at 300-350 nM))
- inhibition of PDGFRB (PDGFR beta) (PDGFRB (PDGFR beta)): − (inhibition under 50% (tested at 300-350 nM))
- inhibition of PHKG2 (PHKG2): − (inhibition under 50% (tested at 300-350 nM))
- inhibition of PIM1 (PIM1): − (inhibition under 50% (tested at 300-350 nM))
- inhibition of PLK1 (PLK1): − (inhibition under 50% (tested at 300-350 nM))
- inhibition of PRKACA (PKA) (PRKACA (PKA)): − (inhibition under 50% (tested at 300-350 nM))
- inhibition of PRKCB1 (PKC beta I) (PRKCB1 (PKC beta I)): − (inhibition under 50% (tested at 300-350 nM))
- inhibition of ROCK1 (ROCK1): − (inhibition under 50% (tested at 300-350 nM))
- inhibition of RPS6KA3 (RSK2) (RPS6KA3 (RSK2)): − (inhibition under 50% (tested at 300-350 nM))
- inhibition of RPS6KB1 (p70S6K) (RPS6KB1 (p70S6K)): − (inhibition under 50% (tested at 300-350 nM))
- inhibition of SRC (SRC): + (inhibition over 50% (tested at 300-350 nM))
- inhibition of SYK (SYK): + (inhibition over 50% (tested at 300-350 nM))
- inhibition of TEK (Tie2) (TEK (Tie2)): − (inhibition under 50% (tested at 300-350 nM))
